The structures appear in SMILES notation.

From patent US10782295B2, “Cysteine-reactive ligand discovery in proteomes” (THE SCRIPPS RESEARCH INSTITUTE, priority 2013, dated 2020) come the findings set out here.

This assay concerns the target T1, FN3KRP (Homo sapiens, UniProt Q9HA64).
T1 construct: directly in native proteomes; endogenous in cells; host or cells: MDA-MB-231
T1 sequence (Q9HA64 1-309): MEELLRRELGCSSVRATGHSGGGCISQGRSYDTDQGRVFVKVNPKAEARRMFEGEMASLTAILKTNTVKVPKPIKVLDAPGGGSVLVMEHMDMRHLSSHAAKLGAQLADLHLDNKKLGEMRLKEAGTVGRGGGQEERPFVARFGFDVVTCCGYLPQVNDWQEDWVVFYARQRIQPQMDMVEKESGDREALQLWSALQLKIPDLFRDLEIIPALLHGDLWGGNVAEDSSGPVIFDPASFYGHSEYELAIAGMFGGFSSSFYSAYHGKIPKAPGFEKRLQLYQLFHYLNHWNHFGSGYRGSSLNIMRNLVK
Put plainly: competitive isoTOP-ABPP, MDA-MB-231 soluble proteome. It counts as binding. Particulars: 100 μM LDE, 60 min; peptide ATGHSGGGC*ISQGR. How it is done:
Here, we envisioned that isoTOP-ABPP could be advanced to discover and quantify reactions between cysteines in proteomes and any electrophilic compound. In this advanced, ‘competitive’ version of isoTOP-ABPP (FIG. 1a), a proteome is treated with an electrophile (experimental sample) or DMSO (control sample). Both proteomic samples are then labeled with the IA probe and conjugated by CuAAC to light and heavy azide-biotin tags, respectively. The light and heavy samples are then mixed and subjected to our described isoTOP-ABPP protocol for enrichment, identification, and quantification of IA-labeled cysteines^30. Electrophile-modified cysteines are quantified by measuring the MS1 chromatographic peak ratios (R values) for heavy (DMSO-treated) over light (electrophile-treated) samples, with higher R values reflecting greater sensitivity to the electrophile. In this format, competitive isoTOP-ABPP can assay electrophiles against 1000+ cysteines in parallel directly in native proteomes without requiring any chemical modification to the electrophiles themselves.
Competitive isoTOP-ABPP experiments were performed in quadruplicate using the soluble proteome of the human breast cancer cell line MDA-MB-231 cell line. Proteomes were treated with 100 μM HNE, 15d-PGJ2, or 2-HD, for 60 minutes, followed by the IA-probe (100 μM, 60 min) A total of ˜1400 cysteine reactivities were quantified across the aggregate data set, with at least 900 cysteine reactivities quantified for each LDE (FIG. 2a) more than 750 of which were quantified for all the three electrophiles.
The MDA-MB-231 cell proteome was treated with varying concentrations of HNE (5, 10, 50, 100 and 500 μM) for 60 min and then the IA-labeling profile of each reaction was quantitatively compared to a DMSO-control sample by isoTOP-ABPP.
HNE was purchased from EMD biosciences, 15d-PGJ2 was purchased from Cayman Chemicals and 2-HD was purchased from Santa Cruz Biotechnology. Proteome samples were diluted to a 4 mg protein/mL solution in PBS. For each profiling experiment, one aliquot of the proteome sample (0.5 mL) was treated with 100 μM of LDE using 5 μL of a 10 mM stock and the other aliquot was treated with 5 μL of either ethanol (for HNE and 15d-PGJ2) or DMSO (for 2-HD) as control. For the concentration-dependent profiling experiments using HNE, aliquots of the proteomes (0.5 mL each) were treated with 5, 10, 50, 100 and 500 μM of HNE using 5 μL of 0.5, 1.0, 5, 10 and 50 mM of stock solution, respectively. After 60 minutes of treatment at room temperature, both the LDE-treated and control aliquots were passed through a NAP-5 Sephadex column (GE healthcare) to remove any unreacted LDE. The volume of each aliquot was increased to 1 mL with the concentration at 2 mg/mL after this step.
Each of the control and LDE-treated proteome samples (˜2 mg protein/mL in 1 mL volume) was treated with 100 μM of IA-probe using 10 μL of a 10 mM stock in DMSO. The labeling reactions were incubated at room temperature for 1 hour. Click chemistry (acetylene-azide cycloaddition) was performed by the addition of 100 μM of either the Heavy-TEV-Tag (for the control sample) or Light-TEV-Tag (for the LDE-treated sample) (20 μL of a 5 mM stock), 1 mM TCEP (fresh 50× stock in water), 100 μM ligand (17× stock in DMSO:t-Butanol 1:4) and 1 mM CuSO4 (50× stock in water). Samples were allowed to react at room temperature for 1 hour. After the click chemistry step, the light and heavy-labeled samples were mixed together and centrifuged (5900×g, 4 min, 4° C.) to pellet the precipitated proteins.
The pellets were washed twice in cold MeOH, after which the pellet was solubilized in PBS containing 1.2% SDS via sonication and heating (5 min, 80° C.). Samples were subjected to streptavidin enrichment of probe-labeled proteins, sequential on-bead trypsin and TEV digestion, and liquid chromatography-mass spectrometry (LC-MS) analysis according to the published isoTOP-ABPP protocol^30. […]
Take `CCCCCCCCCCCCC/C=C/C=O` [2-HD, 2-trans-hexadecenal]: the “R value (isoTOP-ABPP ratio heavy/light) for IA-labeled cysteine of FN3KRP” value (from here on “R value (isoTOP-ABPP ratio heavy/light)”) is on record as 1.03.
Take `CCCCCC(O)/C=C/C=O` (stereo not drawn) [4-HNE, 4-Hydroxynonenal]: the “R value (isoTOP-ABPP ratio heavy/light)” value is over 15.
As to `CCCCC/C=C/C=C1/C(=O)C=C[C@@H]1C/C=C\CCCC(=O)O` [PGJ2, 15-deoxy-Δ12,14-prostaglandin J2], the “R value (isoTOP-ABPP ratio heavy/light)” value stood at 1.62.
